Data as given in US20260357349A1, “METHODS OF IDENTIFYING AND TREATING CANCER” (Agency for Science, Technology and Research, priority 2022, published 2026).
Entries after “also recorded” stand apart in the source; their conditions may differ.

How the values were obtained:
[1] = tested on: NF-κB target genes (786-O cells); test: RT-qPCR of NF-κB target genes after NF-κB inhibitor, 786-O; format: cell-based, human; conditions: 0.006 μM bortezomib or 0.6 µM Bay 11-7085, 24 hours
Experimental: (§1) Colony formation of parental (WT) or PBRM1 knockout (KO) 786-O cells expressing shRNA against non-targeting control (NC), RELA, or NFKB1 cultured with a) 10% or b) 2% serum. c) Gene expression changes of NF-κB target genes in 786-O cells treated with 0.006 μM bortezomib (BTZ) or 0.6 µM Bay 11-7085 for 24 hours (n=3 technical replicates). * p-value<0.05 (two-sided t-test). […] A positive log fold change refers to gain in bortezomib treatment over DMSO. g) Colony formation of 786-O isogenic cells and h) NCC432 isogenic cells treated with bortezomib for a week. Tumor formation of isogenic 786-O cells (i) and NCC432 cells (j) treated with PBS control or 0.5 mg/kg bortezomib (BTZ) in NSG mice. (n=10 tumors per group for 786-O, and n=16 tumors for NCC432 PBS EV group and 12 tumors for NCC432 PBS PBRM1 group and 14 tumors for both NCC432 EV and PBRM1 BTZ groups). Data are presented as mean values+/−SEM. k) Model for the study.

786-O cells = test: Colony formation, 786-O isogenic cells; format: cell-based, human; conditions: 786-O with and without PBRM1, vs DMSO
Experimental: as §1
Data are presented as median+/−25%. […] Data are presented as mean values+/−SD. e) Tornado plots of RELA and SMARCA4 ChIP-seq signals in parental 786-0 or PBRM1-KO 786-O cells treated with DMSO or 0.005 μM bortezomib for 9 hours. f) Kaplan-Meier curves of NSG mice bearing 786-O isogenic cells treated with PBRM1 control or 0.5 mg/kg bortezomib (WT: n=10 PBS arm, median survival=39 days; n=10 bortezomib arm, median survival=52 days, HR=4.1, p=3E-6, log rank test; KO: n=10 PBS arm, median survival=35 days, n=10 bortezomib arm, median survival=66 days, HR=4.1, p=3E-6, log rank test). g) Kaplan-Meier curves of NSG mice bearing NCC432 isogenic cells treated with PBRM1 control or 0.5 mg/kg bortezomib (EV: n=16 PBS arm, median survival=42 days; n=14 bortezomib arm, median survival=49 days, HR=2.5, p=0.0009, log rank test; PBRM1: n=12 PBS arm, median survival=55 days; n=14 bortezomib arm, median survival=58 days, HR=1.2, p=0.5, log rank test). h) 786-O PBRM1 WT or KO cells were screened against the high-specific SGC epigenetic probe collection and cell viability was measured by colony formation after 1 week of treatment relative to DMSO control. […]

IκBα / NF-κB = conditions: cited from earlier work
[2] = tested on: NF-κB target genes (786-O cells); test: RT-qPCR of NF-κB target genes after SMARCA2/4 ATPase inhibitor, 786-O; format: cell-based, human
[3] = tested on: NF-κB target genes (NCC432 cells); test: RT-qPCR of NF-κB target genes after SMARCA2/4 ATPase inhibitor, NCC432; format: cell-based, human
From the text: Data are presented as mean values+/−SD. b) Colony formation of 786-O cells expressing shRNA against non-targeting control (NTC) or ARID2. c) Colony formation of 786-O cells expressing shRNA against non-targeting control (NTC) or SMARCA4. d) Immunoblotting and e) colony formation of NCC432 cells expressing shRNA against non-targeting control (NTC) or ARID2 (n=3 biological replicates). Data are presented as mean values+/−SD. * p<0.05, ** p<0.01 (two-sided t-test). f) Immunoblotting and g) colony formation of NCC432 cells expressing shRNA against non-targeting control (NTC) or SMARCA4 (n=4 biological replicates). Data are presented as mean values+/−SD. *** p<0.001, **** p<0.0001 (two-sided t-test). In vivo tumor formation in h) 786-O parental cells and i) 786-0 PBRM1 KO cells expressing shRNA against non-targeting control (NTC), ARID2 (clone 1) or SMARCA4 (clone 2) (n=10 tumors per group). Data are presented as mean values+/−SEM for tumor growth and mean values+/−SD for tumor weight. **** p<0.0001 (two-sided t-test).
It was previously shown that inhibiting the SMARCA4 ATPAse subunit abolished chromatin accessibility and binding of SMARCA4-dependent transcription factors. To understand whether the activation of pathway requires the ATPase activity of SMARCA4, 786-O and NCC432 cells were treated with SMARCA2/4 ATPase inhibitor. […]

[4] = tested on: NF-κB pathway (786-O cells); test: RNA-seq gene set enrichment of direct NF-κB targets after SMARCA2/4 ATPase inhibitor, 786-O; format: cell-based, human; conditions: 10 μM, 24 hours
Experimental: Data are presented as mean values+/−SD. b, c) 786-O parental and PBRM1 KO cells were treated with 10 μM of SMARCA2/4 ATPase inhibitor for 24 hours and transcriptomic changes were evaluated by RNA-seq (n=2 biological replicates). […] P values were calculated by Kolmogorov-Smirnov test and q value was adjusted for multiple hypotheses testing using gene permutation. d) 786-O cells expressing dox inducible shRNA against ARID2 were treated with 1 μg/ml doxycycline for 2 days and the gene expression of NF-κB targets were quantified by RT-qPCR (n=3 technical replicates representative of 2 biological replicates). Data are presented as mean values+/−SD. * p<0.05, ** p<0.01 (two-sided t-test). e) Single cell clones of either PBRM1 or ARID2 knockout were created in 769-P cells. […] P values were calculated by Kolmogorov-Smirnov test and q values were adjusted for multiple hypotheses testing using gene permutation. […]
Total RNA was extracted using the Qiagen RNeasy Mini kit. […] Sequencing was performed on an Illumina HiSeq4000 sequencer with the paired-end 150 bp read option.
RNA-Seq Pathway Analysis RNA-seq data were mapped to hg19 (h117d5) using STAR, with GENCODE annotation (gencode.v19.annotation.gtf) and recommended settings from STAR manual. Gene expression levels were quantified with STAR. […]

[5] = tested on: RELA occupancy at NF-κB target genes; test: ChIP-qPCR of RELA occupancy after SMARCA2/4 ATPase inhibitor, 786-O; format: cell-based, human; conditions: PB1-deficient setting, 24 hours
Experimental: For each protein of interest, approximately 2×10^7 cells were cross-linked with 1% formaldehyde for 10 min at room temperature, and stopped by adding glycine to a final concentration of 0.2M. Chromatin was extracted and sonicated to ~500 bp (Vibra cell, SONICS). The following antibodies were used for chromatin immunoprecipitation: PBRM1 (Bethyl A301-591A Lot: 3-4), SMARCA4 (AbCAM ab110641 Lot: GR3208604-8), ARID2 (Bethyl A302-230A Lot: 2), BRD7 (Bethyl A302-304A Lot: 1), ARID1A (Santa Cruz sc-32761 Lot: #H2217), SMARCC1 (Santa Cruz sc-32763 Lot: #K1617), NFkB p65/RELA (Santa Cruz sc-372 Lot: #J1915; Diagenode C15310256, Lot: 24468; Invitrogen 51-0500, Lot: WG331314), BRD9 (Bethyl A303-781A, Lot2), RNA POL II (Merck Millipore 05-623 Lot: 2958013), H3K27ac (AbCAM ab4729-100 Lot: 741806), H3K14ac (AbCAM ab52946 Lot: GR3252548-5), H3K4me3 (Merck Millipore 07-473 Lot: 2930138), H3K4me1 (AbCAM ab8895 Lot: GR312093-1), H3K27me3 (Millipore 07-449 Lot: JBC1924326), H3K9me3 (Millipore 07-442 Lot: DAM1411287). The total volume of immunoprecipitation was 2 ml and the amount of antibody used was 20 μg. The input DNA was precleared with protein G Dynabeads (LifeTechnologies) for 2 hours at 4 °C and then incubated with antibodies overnight at 4 °C. […] Each library was sequenced to an average depth of 30-50 million reads on HiSeq2000, HiSeq4000 or Novaseq 6000.

RCC = conditions: best responder to the combined therapy; cited from earlier work

## CC(C)(C)c1ccc(S(=O)(=O)/C=C/C#N)cc1 [Bay 11-7085]
[1]
  suppressing the expression of NF-κB target genes: not Bay 11-7085 was effective
786-O cells
  reducing colony formation: not Bay 11-7085 was effective
IκBα / NF-κB; TNFα-induced vs basal
  effect on IκBα phosphorylation: inhibits TNFα-induced but not basal IκBα phosphorylation
IκBα / NF-κB; TNFα-induced
  effect on nuclear translocation of NF-κB: prevents TNFα-induced nuclear translocation of NF-κB

## O=C(Nc1cc(C(F)F)ns1)Nc1cc(F)ncc1CO [SMARCA2/4 ATPase inhibitor]
[2]; 786-O
  downregulation of BCL2A1 and TNF, PB1-deficient vs proficient: greater downregulation in the PB1-deficient setting compared to the proficient setting
[2]; 786-O parental and PB1 KO, 10, 20 and 50 μM, 3 days
  downregulation of NF-κB target genes: dose-dependent downregulation of NF-κB target genes
[2]; both PB1-proficient and deficient setting
  sensitivity of PDLIM4 and APOL3 expression: exquisitely sensitive
[3]; NCC432
  downregulation of BCL2A1 and TNF, PB1-deficient vs proficient: greater downregulation in the PB1-deficient setting compared to the proficient setting
[3]; NCC432 empty vector or PBRM1, 3 days
  downregulation of NF-κB target genes: dose-dependent downregulation of NF-κB target genes
[4]
  gene set enrichment of direct NF-κB targets, PB1-deficient vs parental: greater effect of NF-κB downregulation in PB1-deficient cells compared to parental 786-O cells; also recorded: greater downregulation of NF-κB pathway in PBRM1-deficient cells compared to parental 786-O cells
[5]
  regions probed with significantly decreased RELA occupancy: 5/6

## bevacizumab: bevacizumab therapy
RCC
  prior therapy outcome: failed
